Consider 4 molecules from publication PMC3876124, “Identification and Biochemical Characterization of Protein Phosphatase 5 from the Cantharidin-Producing Blister Beetle, Epicauta chinensis” (International Journal of Molecular Sciences, 2013).

Read-outs that look alike come from different tables or passages of the source.

This test has as its target T1, Protein phosphatase 5 (EcPP5, rEcPP5) (Epicauta chinensis, UniProt W0FW71).
T1 construct: recombinant full ORF (499 aa), N-terminal His6 tag, E. coli expressed
T1 sequence (W0FW71 1-499): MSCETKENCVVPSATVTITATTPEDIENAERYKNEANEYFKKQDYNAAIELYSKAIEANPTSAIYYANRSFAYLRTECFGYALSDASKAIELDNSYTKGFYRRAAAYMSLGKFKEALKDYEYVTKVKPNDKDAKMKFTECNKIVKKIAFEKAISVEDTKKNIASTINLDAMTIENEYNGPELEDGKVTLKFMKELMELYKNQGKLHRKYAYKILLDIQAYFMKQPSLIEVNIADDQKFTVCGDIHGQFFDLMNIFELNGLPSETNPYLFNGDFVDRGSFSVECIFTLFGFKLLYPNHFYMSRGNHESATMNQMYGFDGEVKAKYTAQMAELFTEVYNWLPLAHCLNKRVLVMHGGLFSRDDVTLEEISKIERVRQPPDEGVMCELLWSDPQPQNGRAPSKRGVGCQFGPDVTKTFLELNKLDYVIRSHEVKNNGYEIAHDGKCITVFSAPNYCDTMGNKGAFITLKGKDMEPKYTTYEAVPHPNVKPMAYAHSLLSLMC
Kind of test: pNPP phosphatase assay, dose-response, purified enzyme. It is filed as biochemical.

Consider `C[C@@]12C(=O)OC(=O)[C@]1(C)[C@H]1CC[C@@H]2O1` [cantharidin], for which it took 3.19 µM to reach half-maximal inhibition (IC50).
The same measure, in the same setting: to `O=C(O)[C@@H]1[C@H](C(=O)O)[C@H]2CC[C@@H]1O2` [endothall] belongs 28.4 µM.
For `O=C1OC(=O)[C@H]2[C@@H]1[C@@H]1CC[C@H]2O1` [norcantharidin], the IC50 (read-out: IC50) is 25.7 µM.
`C=C1[C@@H](O)[C@@H]2O[C@]3(CC[C@H](/C=C/[C@@H](C)[C@@H]4CC(C)=C[C@@]5(O[C@H](C[C@@](C)(O)C(=O)O)CC[C@H]5O)O4)O3)CC[C@H]2O[C@@H]1[C@@H](O)C[C@H](C)[C@H]1O[C@@]2(CCCCO2)CC[C@H]1C` [okadaic acid] gave a 50% inhibitory concentration (IC50) of 0.19 µM.

One may read the IC50 as the point on the concentration scale where inhibition reaches its midpoint.
